Results from ChEMBL document CHEMBL1140192, “Sorocenols G and H, anti-MRSA oxygen heterocyclic Diels-Alder-type adducts from Sorocea muriculata roots” (J Nat Prod, 2008).
Converted amounts (≈) assume the structure as drawn. The source made the active and inactive calls. No cut-off for these calls is given here.

Legend:
Format in all cases: functional, organism-based
Cryptococcus neoformans = experiment: Antifungal activity against Cryptococcus neoformans ATCC 90113 after 68 to 72 hrs
Candida albicans = experiment: Antifungal activity against Candida albicans ATCC 90028 after 18 to 24 hrs
Aspergillus fumigatus = experiment: Antifungal activity against Aspergillus fumigatus ATCC 90906 after 68 to 72 hrs
Staphylococcus aureus = experiment: Antibacterial activity against methicillin-resistant Staphylococcus aureus ATCC 43300 after 18 to 24 hrs
Pseudomonas aeruginosa = experiment: Antibacterial activity against Pseudomonas aeruginosa ATCC 27853 at 20 ug/mL after 18 to 24 hrs
[1] = system: Mycobacterium intracellulare; experiment: Antibacterial activity against Mycobacterium intracellular ATCC 23068 at 20 ug/mL after 68 to 72 hrs
Escherichia coli = experiment: Antibacterial activity against Escherichia coli ATCC 35218 at 20 ug/mL after 18 to 24 hrs

SMILES	IC50 (Cryptococcus neoformans) [nM]	MFC (Cryptococcus neoformans) [µM]	MIC (Cryptococcus neoformans) [µM]	IC50 (Candida albicans) [nM]	MFC (Candida albicans) [µM]	MIC (Candida albicans) [µM]	IC50 (Aspergillus fumigatus) [nM]	MFC (Aspergillus fumigatus) [µM]	MIC (Aspergillus fumigatus) [µM]	Activity (Staphylococcus aureus)	MIC (Staphylococcus aureus) [µM]	Activity (Pseudomonas aeruginosa)	Activity (Cryptococcus neoformans)	Activity [1]	Activity (Escherichia coli)	Activity (Candida albicans)	Activity (Aspergillus fumigatus)	IC50 (Staphylococcus aureus) [nM]	MBC (Staphylococcus aureus) [µM]
C[C@@H]1[C@H](O)[C@@H](C)/C=C/C=C/C=C/C=C/C=C/C=C/C=C/[C@H](O[C@@H]2O[C@H](C)[C@@H](O)[C@H](N)[C@@H]2O)C[C@@H]2O[C@](O)(C[C@@H](O)C[C@@H](O)[C@H](O)CC[C@@H](O)C[C@@H](O)CC(=O)O[C@H]1C)C[C@H](O)[C@H]2C(=O)O [AMPHOTERICIN B]	900	2.5 (≈ 2.31 µg/mL)	1.4 (≈ 1.29 µg/mL)	300	1.4 (≈ 1.29 µg/mL)	0.7 (≈ 0.647 µg/mL)	1600	2.7 (≈ 2.5 µg/mL)	2.7 (≈ 2.5 µg/mL)										
O=C(O)c1cn(C2CC2)c2cc(N3CCNCC3)c(F)cc2c1=O [CIPROFLOXACIN]										inactive	0.8 (≈ 0.265 µg/mL)								
CC1=C[C@@H]2c3c(O)cc(-c4cc5ccc(O)cc5o4)cc3O[C@]3(c4ccc(O)c5c4OC(C)(C)C=C5)Oc4cc(O)ccc4[C@H](C1)[C@@H]23 [SOROCENOL G]											4 (≈ 2.51 µg/mL)	inactive	Active	inactive	inactive	Active	inactive	1500	31.8 (≈ 20 µg/mL)
CC(C)=CCc1c(O)ccc(C(=O)[C@H]2[C@H](c3c(O)cc(-c4cc5ccc(O)cc5o4)cc3O)C=C(C)C[C@H]2c2ccc(O)cc2O)c1O [SOROCENOL H]	5400	7.7 (≈ 5 µg/mL)	7.7 (≈ 5 µg/mL)	5400	30.8 (≈ 20 µg/mL)	15.4 (≈ 9.99 µg/mL)	10000	30.8 (≈ 20 µg/mL)	15.4 (≈ 9.99 µg/mL)		1.9 (≈ 1.23 µg/mL)	inactive		inactive	inactive			500	30.8 (≈ 20 µg/mL)
